system: 454973-116-R2-J3-PDC spheroids, viability, % test/control; assay: Anticancer human tumor 454973-116-R2-J3-PDC patient-derived pancreatic carcinoma cell line growth inhibition [GQUAD]; conditions: second compound 0.316 µM; first compound 1 µM; stronger effect = lower value; spheroids with HUVEC and MSC
Method in brief: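 Multi-cell-type spheroids of tumor cells with HUVEC and mesenchymal stem cells, treated with drug combinations. Concentrations descend in half-log steps from near clinical Cmax, or from 10 microM where Cmax is unknown; viability read-out.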
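Note: spheroids exposed to compounds for seven days; 100% = DMSO vehicle control viability.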

SMILES	viability, T/C [%]
CC(C)(O)C1CCC(Nc2ccc3ncc(-c4cccc(C(F)(F)F)c4)n3n2)CC1 (stereo unspecified) + CN(C)c1ccc(Nc2c3ccc(NC(=O)CCN4CCCC4)cc3nc3cc(NC(=O)CCN4CCCC4)ccc23)cc1	62.9
COc1ncnc(C2CC2)c1-c1ncc2cnn(Cc3ccc(-c4nc(C(F)(F)F)cn4C(C)C)cc3)c2n1 + CN(C)c1ccc(Nc2c3ccc(NC(=O)CCN4CCCC4)cc3nc3cc(NC(=O)CCN4CCCC4)ccc23)cc1	101
O=C(NO)c1cnc(N2CCN(S(=O)(=O)c3ccc4ccccc4c3)CC2)nc1 + CN(C)c1ccc(Nc2c3ccc(NC(=O)CCN4CCCC4)cc3nc3cc(NC(=O)CCN4CCCC4)ccc23)cc1	3.25
CC(C)n1c(=O)n(C)c2cnc3cc(F)c(-c4ccc(OCCCN5CCCCC5)nc4)cc3c21 + Cc1[nH]c2ccc(F)cc2c1-c1nc2c3cccnc3c3ncccc3c2[nH]1	117
CC1COCCN1c1cc(-c2ccnn2C)c2ccnc(-c3ccn[nH]3)c2n1 (stereo unspecified) + Cc1[nH]c2ccc(F)cc2c1-c1nc2c3cccnc3c3ncccc3c2[nH]1	20.6
CC1COCCN1c1cc(C2(S(C)(=N)=O)CC2)nc(-c2ccnc3[nH]ccc23)n1 (stereo unspecified) + Cc1[nH]c2ccc(F)cc2c1-c1nc2c3cccnc3c3ncccc3c2[nH]1	103
COc1ccc([C@@H](O)c2cc(-c3ncnc4cc(N5CCOCC5)ccc34)c(F)cc2Cl)nn1 + Cc1[nH]c2ccc(F)cc2c1-c1nc2c3cccnc3c3ncccc3c2[nH]1	91.5

same assay, conditions: second compound 0.316 µM; first compound 3.16 µM; stronger effect = lower value; spheroids with HUVEC and MSC

SMILES	viability, T/C [%]
CC(C)(O)C1CCC(Nc2ccc3ncc(-c4cccc(C(F)(F)F)c4)n3n2)CC1 (stereo unspecified) + CN(C)c1ccc(Nc2c3ccc(NC(=O)CCN4CCCC4)cc3nc3cc(NC(=O)CCN4CCCC4)ccc23)cc1	23.3
COc1ncnc(C2CC2)c1-c1ncc2cnn(Cc3ccc(-c4nc(C(F)(F)F)cn4C(C)C)cc3)c2n1 + CN(C)c1ccc(Nc2c3ccc(NC(=O)CCN4CCCC4)cc3nc3cc(NC(=O)CCN4CCCC4)ccc23)cc1	91.6
O=C(NO)c1cnc(N2CCN(S(=O)(=O)c3ccc4ccccc4c3)CC2)nc1 + CN(C)c1ccc(Nc2c3ccc(NC(=O)CCN4CCCC4)cc3nc3cc(NC(=O)CCN4CCCC4)ccc23)cc1	0.11
CC(C)n1c(=O)n(C)c2cnc3cc(F)c(-c4ccc(OCCCN5CCCCC5)nc4)cc3c21 + Cc1[nH]c2ccc(F)cc2c1-c1nc2c3cccnc3c3ncccc3c2[nH]1	83.9
CC1COCCN1c1cc(-c2ccnn2C)c2ccnc(-c3ccn[nH]3)c2n1 (stereo unspecified) + Cc1[nH]c2ccc(F)cc2c1-c1nc2c3cccnc3c3ncccc3c2[nH]1	23.4
CC1COCCN1c1cc(C2(S(C)(=N)=O)CC2)nc(-c2ccnc3[nH]ccc23)n1 (stereo unspecified) + Cc1[nH]c2ccc(F)cc2c1-c1nc2c3cccnc3c3ncccc3c2[nH]1	64.8
COc1ccc([C@@H](O)c2cc(-c3ncnc4cc(N5CCOCC5)ccc34)c(F)cc2Cl)nn1 + Cc1[nH]c2ccc(F)cc2c1-c1nc2c3cccnc3c3ncccc3c2[nH]1	65.9

same assay, conditions: second compound 0.316 µM; first compound 10 µM; stronger effect = lower value; spheroids with HUVEC and MSC

SMILES	viability, T/C [%]
CC(C)(O)C1CCC(Nc2ccc3ncc(-c4cccc(C(F)(F)F)c4)n3n2)CC1 (stereo unspecified) + CN(C)c1ccc(Nc2c3ccc(NC(=O)CCN4CCCC4)cc3nc3cc(NC(=O)CCN4CCCC4)ccc23)cc1	33.2
COc1ncnc(C2CC2)c1-c1ncc2cnn(Cc3ccc(-c4nc(C(F)(F)F)cn4C(C)C)cc3)c2n1 + CN(C)c1ccc(Nc2c3ccc(NC(=O)CCN4CCCC4)cc3nc3cc(NC(=O)CCN4CCCC4)ccc23)cc1	90.6
O=C(NO)c1cnc(N2CCN(S(=O)(=O)c3ccc4ccccc4c3)CC2)nc1 + CN(C)c1ccc(Nc2c3ccc(NC(=O)CCN4CCCC4)cc3nc3cc(NC(=O)CCN4CCCC4)ccc23)cc1	0.17
CC(C)n1c(=O)n(C)c2cnc3cc(F)c(-c4ccc(OCCCN5CCCCC5)nc4)cc3c21 + Cc1[nH]c2ccc(F)cc2c1-c1nc2c3cccnc3c3ncccc3c2[nH]1	65
CC1COCCN1c1cc(-c2ccnn2C)c2ccnc(-c3ccn[nH]3)c2n1 (stereo unspecified) + Cc1[nH]c2ccc(F)cc2c1-c1nc2c3cccnc3c3ncccc3c2[nH]1	21.9
CC1COCCN1c1cc(C2(S(C)(=N)=O)CC2)nc(-c2ccnc3[nH]ccc23)n1 (stereo unspecified) + Cc1[nH]c2ccc(F)cc2c1-c1nc2c3cccnc3c3ncccc3c2[nH]1	28.7
COc1ccc([C@@H](O)c2cc(-c3ncnc4cc(N5CCOCC5)ccc34)c(F)cc2Cl)nn1 + Cc1[nH]c2ccc(F)cc2c1-c1nc2c3cccnc3c3ncccc3c2[nH]1	53.5

same assay, conditions: second compound 1 µM; first compound 0.0316 µM; stronger effect = lower value; spheroids with HUVEC and MSC

SMILES	viability, T/C [%]
CC(C)(O)C1CCC(Nc2ccc3ncc(-c4cccc(C(F)(F)F)c4)n3n2)CC1 (stereo unspecified) + CN(C)c1ccc(Nc2c3ccc(NC(=O)CCN4CCCC4)cc3nc3cc(NC(=O)CCN4CCCC4)ccc23)cc1	87.9
COc1ncnc(C2CC2)c1-c1ncc2cnn(Cc3ccc(-c4nc(C(F)(F)F)cn4C(C)C)cc3)c2n1 + CN(C)c1ccc(Nc2c3ccc(NC(=O)CCN4CCCC4)cc3nc3cc(NC(=O)CCN4CCCC4)ccc23)cc1	96.3
O=C(NO)c1cnc(N2CCN(S(=O)(=O)c3ccc4ccccc4c3)CC2)nc1 + CN(C)c1ccc(Nc2c3ccc(NC(=O)CCN4CCCC4)cc3nc3cc(NC(=O)CCN4CCCC4)ccc23)cc1	81.4
CC(C)n1c(=O)n(C)c2cnc3cc(F)c(-c4ccc(OCCCN5CCCCC5)nc4)cc3c21 + Cc1[nH]c2ccc(F)cc2c1-c1nc2c3cccnc3c3ncccc3c2[nH]1	94.8
CC1COCCN1c1cc(-c2ccnn2C)c2ccnc(-c3ccn[nH]3)c2n1 (stereo unspecified) + Cc1[nH]c2ccc(F)cc2c1-c1nc2c3cccnc3c3ncccc3c2[nH]1	87
CC1COCCN1c1cc(C2(S(C)(=N)=O)CC2)nc(-c2ccnc3[nH]ccc23)n1 (stereo unspecified) + Cc1[nH]c2ccc(F)cc2c1-c1nc2c3cccnc3c3ncccc3c2[nH]1	106
COc1ccc([C@@H](O)c2cc(-c3ncnc4cc(N5CCOCC5)ccc34)c(F)cc2Cl)nn1 + Cc1[nH]c2ccc(F)cc2c1-c1nc2c3cccnc3c3ncccc3c2[nH]1	98.2

same assay, conditions: second compound 1 µM; first compound 0.1 µM; stronger effect = lower value; spheroids with HUVEC and MSC

SMILES	viability, T/C [%]
CC(C)(O)C1CCC(Nc2ccc3ncc(-c4cccc(C(F)(F)F)c4)n3n2)CC1 (stereo unspecified) + CN(C)c1ccc(Nc2c3ccc(NC(=O)CCN4CCCC4)cc3nc3cc(NC(=O)CCN4CCCC4)ccc23)cc1	92
COc1ncnc(C2CC2)c1-c1ncc2cnn(Cc3ccc(-c4nc(C(F)(F)F)cn4C(C)C)cc3)c2n1 + CN(C)c1ccc(Nc2c3ccc(NC(=O)CCN4CCCC4)cc3nc3cc(NC(=O)CCN4CCCC4)ccc23)cc1	96.2
O=C(NO)c1cnc(N2CCN(S(=O)(=O)c3ccc4ccccc4c3)CC2)nc1 + CN(C)c1ccc(Nc2c3ccc(NC(=O)CCN4CCCC4)cc3nc3cc(NC(=O)CCN4CCCC4)ccc23)cc1	77.2
CC(C)n1c(=O)n(C)c2cnc3cc(F)c(-c4ccc(OCCCN5CCCCC5)nc4)cc3c21 + Cc1[nH]c2ccc(F)cc2c1-c1nc2c3cccnc3c3ncccc3c2[nH]1	101
CC1COCCN1c1cc(-c2ccnn2C)c2ccnc(-c3ccn[nH]3)c2n1 (stereo unspecified) + Cc1[nH]c2ccc(F)cc2c1-c1nc2c3cccnc3c3ncccc3c2[nH]1	62
CC1COCCN1c1cc(C2(S(C)(=N)=O)CC2)nc(-c2ccnc3[nH]ccc23)n1 (stereo unspecified) + Cc1[nH]c2ccc(F)cc2c1-c1nc2c3cccnc3c3ncccc3c2[nH]1	104
COc1ccc([C@@H](O)c2cc(-c3ncnc4cc(N5CCOCC5)ccc34)c(F)cc2Cl)nn1 + Cc1[nH]c2ccc(F)cc2c1-c1nc2c3cccnc3c3ncccc3c2[nH]1	97.3

same assay, conditions: second compound 1 µM; first compound 0.316 µM; stronger effect = lower value; spheroids with HUVEC and MSC

SMILES	viability, T/C [%]
CC(C)(O)C1CCC(Nc2ccc3ncc(-c4cccc(C(F)(F)F)c4)n3n2)CC1 (stereo unspecified) + CN(C)c1ccc(Nc2c3ccc(NC(=O)CCN4CCCC4)cc3nc3cc(NC(=O)CCN4CCCC4)ccc23)cc1	84.5

Source: PubChem BioAssay AID2060508 (Molecular Pharmacology Branch, DTP, NCI, 2025)
